Values of other authors, collected in patent EP2085120A1, “The use of substances for the treatment of central or peripheral insulin receptor impairment and insulin resistance” (Merz Pharma GmbH & Co. KGaA, priority 2008, dated 2009).

Tested on: cultured hippocampal and cortical neurons
Conditions: cultured hippocampal and cortical neurons pretreated with ADDLs or ADDL/glutamate; addition of an NMDA receptor antagonist

CC12CC3CC(C)(C1)CC(N)(C3)C2 [memantine]
ADDL and glutamate-induced decreased insulin sensitivity: reversible
